# Experimental data from article PMC7160333, “Physiological Role of Glutamate Dehydrogenase in Cancer Cells” (Frontiers in Oncology, 2020).
# Like-named read-outs stand apart in the source and are kept apart here.
# What was measured:
# [1] = system: recombinant human GDH isoforms (GDH1 and GDH2), bovine liver GDH, Ox brain GDH, dogfish liver GDH, rat brain GDH, and bovine brain GDH isoforms; parameters: method as in PMID 4381532, PMID 7588764, PMID 17924438, PMID 23420347, PMID 7190024; conditions: pH range of 7.4–8.7, cited from earlier work
# HepM GDH1 = HepM GDH1 (Rattus norvegicus, UniProt P10860); experiment: GDH reverse (aminating) reaction activity in hepatoma mitochondria (HepM); assay type: biochemical; conditions: for Vmax at given ADP concentration: HepM GDH, pH 7.50, 37°C, 280 μg protein, MWC fit, representative experiment; for EC50: Hill equation; for Ki: saturating ADP, read-out: Ki GTP
# Procedure: (§1) Tightly coupled mitochondria were isolated from fed-rat liver (RLM) and AS-30D cells (HepM) as described elsewhere ([89], [90]). […] The resulting mitochondrial fractions were resuspended at 30 to 80 mg protein/mL in SHE buffer with 1 mM PMSF, 1 mM EDTA, 5 mM DTT, and 10% glycerol, and stored at −70°C until use for determination of enzyme activity and Western blotting.
# RLM GDH1 = RLM GDH1 (Rattus norvegicus, UniProt P10860); experiment: GDH reverse (aminating) reaction activity in rat liver mitochondria (RLM); assay type: biochemical; conditions: for Vmax at given ADP concentration: RLM GDH, pH 7.50, 37°C, 90 μg protein, MWC fit, representative experiment; for EC50: Hill equation; for Ki: saturating ADP, read-out: Ki GTP
# Procedure: as §1
# GDH in HepM and RLM = GDH in HepM and RLM (Rattus norvegicus, UniProt P10860); experiment: GDH reverse reaction kinetics, summary statements for HepM and RLM; assay type: biochemical; conditions: summary of Table 2
# Procedure: (§2) The decrease in the absorbance at 340 nm was followed for several minutes (~10 min) to allow for full development of the pronounced enzyme hysteretic behavior, although the initial signal decrease (1–3 min) was taken to calculate the GDH rates. The protein concentration ranges used for each mitochondrial type were well within the linearity range of enzyme activity. To calculate the kinetic parameters, the experimental data were fitted by non-linear regression analysis to the Hill or MWC equation, using the Microcal Origin 5.0 software (OriginLab, Northampton, MA, USA).
# GDH1 = GDH1 (Rattus norvegicus, UniProt P10860); experiment: Effect of Mg2+ and spermidine on GDH1 activity; assay type: biochemical
# Procedure: as §2
# [2] = system: mammalian liver and brain GDHs; parameters: method as in PMID 3701332, PMID 7588764, PMID 7190024, PMID 4052048, PMID 1366782; conditions: cited from earlier work
# [3] = system: prostate cancer, renal cancer, and leukemia cell lines; parameters: method as in PMID 1372534, PMID 12820434; conditions: cited from earlier work
# tumors = system: tumors; parameters: method as in PMID 10071293; conditions: clinical trials; cited from earlier work
# Sequence of HepM GDH1 (P10860 54-558): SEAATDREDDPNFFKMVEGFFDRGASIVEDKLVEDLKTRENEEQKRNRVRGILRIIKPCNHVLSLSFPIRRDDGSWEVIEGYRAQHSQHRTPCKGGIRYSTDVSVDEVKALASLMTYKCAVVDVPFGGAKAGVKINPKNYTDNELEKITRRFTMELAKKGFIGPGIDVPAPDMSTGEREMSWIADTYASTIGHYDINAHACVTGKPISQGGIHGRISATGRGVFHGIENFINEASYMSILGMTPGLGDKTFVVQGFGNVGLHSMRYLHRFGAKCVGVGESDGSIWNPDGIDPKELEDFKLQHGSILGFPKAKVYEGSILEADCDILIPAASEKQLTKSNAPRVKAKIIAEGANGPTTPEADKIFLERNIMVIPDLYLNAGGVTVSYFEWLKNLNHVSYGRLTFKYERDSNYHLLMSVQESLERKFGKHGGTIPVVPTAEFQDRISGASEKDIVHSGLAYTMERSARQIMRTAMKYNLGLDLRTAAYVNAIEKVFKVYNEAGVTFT
# Sequence of RLM GDH1 (P10860 54-558): as above
# Sequence of GDH1 (P10860 54-558): as above
# Sequence of GDH in HepM and RLM (P10860 54-558): as above
compound,measurement,setting,value
"O=C(O)CCC(=O)C(=O)O [2-OG, 2-oxoglutarate]",Km,[1]; read-out: Km 2OG,470 to 4500 µM
same,Km,"HepM GDH1; HepM, pH 7.2, Michaelis–Menten, read-out: Km 2-OG",442 ± 160 µM
same,Km,"HepM GDH1; HepM, pH 7.5, Michaelis–Menten, read-out: Km 2-OG",733 ± 325 µM
same,Km,"RLM GDH1; RLM, pH 7.2, Michaelis–Menten, read-out: Km 2-OG",371 ± 232 µM
same,Km,"RLM GDH1; RLM, pH 7.5, Michaelis–Menten, read-out: Km 2-OG",396 ± 75 µM
Nc1ncnc2c1ncn2[C@@H]1O[C@H](COP(=O)(O)OP(=O)(O)O)[C@@H](O)[C@H]1O [ADP],Vmax at given ADP concentration,HepM GDH1; 0.13 mM ADP,0.037 ± 0.009 ΔAbs/min
same,Vmax at given ADP concentration,HepM GDH1; 0.5 mM ADP,0.153 ± 0.008 ΔAbs/min
same,Vmax at given ADP concentration,HepM GDH1; 1.5 mM ADP,0.193 ± 0.011 ΔAbs/min
same,Vmax at given ADP concentration,HepM GDH1; […] ADP,0.099 ± 0.010 ΔAbs/min
same,nH (Hill coefficient) for ADP,"HepM GDH1; HepM, pH 7.2, Hill equation",2.77 ± 0.7
same,Ka ADP (activation constant),"HepM GDH1; HepM, pH 7.2, MWC equation",0.42 ± 0.26 (3) mM
same,EC50,"HepM GDH1; HepM, pH 7.2, allosteric activator, read-out: K0.5 ADP",564 ± 167 µM
same,nH (Hill coefficient) for ADP,"HepM GDH1; HepM, pH 7.5, Hill equation",2.6 ± 0.4
same,Ka ADP (activation constant),"HepM GDH1; HepM, pH 7.5, MWC equation",0.44 ± 0.37 (3) mM
same,EC50,"HepM GDH1; HepM, pH 7.5, allosteric activator, read-out: K0.5 ADP",281 ± 134 µM
same,Hill coefficient (nH) when varying ADP,GDH in HepM and RLM,2.3–2.8
same,Vmax at given ADP concentration,RLM GDH1; 0.25 mM ADP,0.131 ± 0.113 ΔAbs/min
same,Vmax at given ADP concentration,RLM GDH1; 0.75 mM ADP,0.295 ± 0.022 ΔAbs/min
same,Vmax at given ADP concentration,RLM GDH1; 2.1 mM ADP,0.367 ± 0.024 ΔAbs/min
same,nH (Hill coefficient) for ADP,"RLM GDH1; RLM, pH 7.2, Hill equation",2.4 ± 0.3
same,Ka ADP (activation constant),"RLM GDH1; RLM, pH 7.2, MWC equation",0.51 ± 0.14 (5) mM
same,EC50,"RLM GDH1; RLM, pH 7.2, allosteric activator, read-out: K0.5 ADP",567 ± 125 µM
same,nH (Hill coefficient) for ADP,"RLM GDH1; RLM, pH 7.5, Hill equation",2.34
same,Ka ADP (activation constant),"RLM GDH1; RLM, pH 7.5, MWC equation",0.11 ± 0.14 (4) mM
same,EC50,"RLM GDH1; RLM, pH 7.5, allosteric activator, read-out: K0.5 ADP",285 µM
Nc1nc2c(ncn2[C@@H]2O[C@H](COP(=O)(O)OP(=O)(O)OP(=O)(O)O)[C@@H](O)[C@H]2O)c(=O)[nH]1 [GTP],Ki,"HepM GDH1; HepM, pH 7.2, MWC equation",28 ± 27 µM
same,IC50,"HepM GDH1; HepM, pH 7.2, reverse reaction",114 ± 29 µM
same,Ki,"HepM GDH1; HepM, pH 7.5, MWC equation",64 ± 59 µM
same,Ki,"RLM GDH1; RLM, pH 7.2, MWC equation",60 ± 10 µM
same,IC50,"RLM GDH1; RLM, pH 7.2, reverse reaction",139 ± 21 µM
same,Ki,"RLM GDH1; RLM, pH 7.5, MWC equation",31.7 ± 7 µM
same,IC50,"RLM GDH1; RLM, pH 7.5, reverse reaction",244 µM
"CC(C)C[C@H](N)C(=O)O [Leu, L-leucine]",nH (Hill coefficient) for Leu,"HepM GDH1; HepM, pH 7.2, Hill equation",2.8
same,EC50,"HepM GDH1; HepM, pH 7.2, activator, read-out: K0.5 Leu",2600 µM
same,nH (Hill coefficient) for Leu,"RLM GDH1; RLM, pH 7.2, Hill equation",2.75
same,EC50,"RLM GDH1; RLM, pH 7.2, activator, read-out: K0.5 Leu",3900 µM
"[Cl-].[Cl-].[Mg+2] [Mg^2+, MgCl2]",Effect on GDH1 activity,GDH1; 0- to 0.4-mM added MgCl2,not affected
same,Inhibition of GDH1 activity,GDH1; 1 mM Mg^2+,< 10%
same,Inhibition of GDH1 activity,GDH1; 2 mM Mg^2+,~ 20%
NC(=O)C1=CN([C@@H]2O[C@H](COP(=O)(O)OP(=O)(O)OC[C@H]3O[C@@H](n4cnc5c(N)ncnc54)[C@H](O)[C@@H]3O)[C@@H](O)[C@H]2O)C=CC1 [NADH],Km,[2],28 to 120 µM
NC(=O)C1=CN([C@@H]2O[C@H](COP(=O)(O)OP(=O)(O)OC[C@H]3O[C@@H](n4cnc5c(N)ncnc54)[C@H](OP(=O)(O)O)[C@@H]3O)[C@@H](O)[C@H]2O)C=CC1 [NADPH],Km,[1]; read-out: Km NADPH,20 to 120 µM
same,Km,[2],22 to 120 µM
same,Km,"HepM GDH1; read-out: Km NADPH, HepM, pH 7.2, Michaelis–Menten",46 ± 14 µM
same,Km,"HepM GDH1; read-out: Km NADPH, HepM, pH 7.5, Michaelis–Menten",109 ± 4 µM
same,Km,"RLM GDH1; read-out: Km NADPH, RLM, pH 7.5, Michaelis–Menten",133 ± 28 µM
NC(=O)c1ccc[n+]([C@@H]2O[C@H](COP(=O)([O-])OP(=O)(O)OC[C@H]3O[C@@H](n4cnc5c(N)ncnc54)[C@H](OP(=O)(O)O)[C@@H]3O)[C@@H](O)[C@H]2O)c1 [NADP^+],Km,[2],160 to 1220 µM
NC(=O)c1ccc[n+]([C@@H]2O[C@H](COP(=O)([O-])OP(=O)(O)OC[C@H]3O[C@@H](n4cnc5c(N)ncnc54)[C@H](O)[C@@H]3O)[C@@H](O)[C@H]2O)c1 [NAD^+],Km,[2],170 to 830 µM
"O=C(O)CCCc1ccccc1 [Phenylbutyrate, phenylbutyrate]",Growth of cell lines,[3],arrests growth
NCCCCNCCCN [Spermidine],Effect on GDH activity,"GDH1; spermidine 0–5 mM, data not shown",innocuous
same,inhibition at 20000 µM,"GDH1; spermidine 20 mM, data not shown, read-out: Inhibition of GDH activity",20%
O=C(O)Cc1ccccc1 [phenylacetate],Growth of cell lines,[3],arrests growth
same,Antitumor activity,tumors,negligible antitumor activity
